Source: article PMC11047580, “Design and Synthesis of Novel Amino and Acetamidoaurones with Antimicrobial Activities” (Antibiotics, 2024)
Values after ≈ are worked out from the molar mass of the structure shown.

Columns and labels:
B. subtilis ATCC6633 = assay: MIC assay; type: cell-based, Bacillus subtilis; details: two-fold serial dilutions in liquid media, n = 2–3
S. aureus ATCC6538P = assay: MIC assay; type: cell-based, Staphylococcus aureus; details: two-fold serial dilutions in liquid media, n = 2–3
E. coli ATCC8739 = assay: MIC assay; type: cell-based, Escherichia coli; details: two-fold serial dilutions in liquid media, n = 2–3
P. aeruginosa ATCC9027 = assay: MIC assay; type: cell-based, Pseudomonas aeruginosa; details: two-fold serial dilutions in liquid media, n = 2–3
M. smegmatis ATCC700084 = assay: MIC assay (REMA); type: cell-based, Mycobacterium smegmatis; details: n = 2–3
C. albicans DSM10697 = assay: MIC assay; type: cell-based, Candida albicans; details: two-fold serial dilutions in liquid media, n = 2–3
[1] = Staphylococcus aureus, ATCC6538P
[2] = Pseudomonas aeruginosa, ATCC9027
[3] = Mycolicibacterium smegmatis, ATCC700084, REMA microdilution

Row | SMILES | MIC (B. subtilis ATCC6633; Bacillus subtilis, ATCC6633) | MIC (S. aureus ATCC6538P; [1]) | MIC (E. coli ATCC8739; Escherichia coli, ATCC8739) | MIC (P. aeruginosa ATCC9027; [2]) | MIC (M. smegmatis ATCC700084; [3]) | MIC (C. albicans DSM10697; Candida albicans, DSM10697) | melting point | MIC (B. subtilis ATCC6633) | MIC (S. aureus ATCC6538P) | MIC (E. coli ATCC8739) | MIC (P. aeruginosa ATCC9027) | MIC (M. smegmatis ATCC700084; REMA microdilution) | MIC (C. albicans DSM10697)
1 | CC(C)Oc1ccc(/C=C2\Oc3ccc(N)cc3C2=O)cc1 [Compound 23, (Z)-5-amino-2-(4-isopropoxybenzylidene)benzofuran-3(2H)-one] | > 100 µM | > 100 µM | > 100 µM | > 100 µM | > 100 µM | > 100 µM | > 350 °C | – | – | – | – | – | –
2 | CC(=O)Nc1ccc2c(c1)C(=O)/C(=C/c1ccccc1F)O2 [Compound 24, (Z)-N-(2-(2-fluorobenzylidene)-3-oxo-2,3-dihydrobenzofuran-5-yl)acetamide] | > 100 µM | > 100 µM | > 100 µM | > 100 µM | > 100 µM | > 100 µM | 226 °C | – | – | – | – | – | –
3 | COc1ccccc1/C=C1\Oc2ccc(N)cc2C1=O [Compound 7, (Z)-5-amino-2-(2-methoxybenzylidene)benzofuran-3(2H)-one] | > 100 µM | > 100 µM | > 100 µM | > 100 µM | > 100 µM | > 100 µM | 189.3 °C | – | – | – | – | – | –
4 | COc1ccccc1C=C1Oc2ccc(NC(C)=O)cc2C1=O [Compound 4] | – | – | – | – | – | – | – | 50 µM (≈ 15.5 µg/mL) | 100 µM (≈ 30.9 µg/mL) | >100 µM | >100 µM | >100 µM | >100 µM
5 | CC(=O)Nc1ccc2c(c1)C(=O)/C(=C/c1cccc(C(F)(F)F)c1)O2 [Compound 29, (Z)-N-(3-oxo-2-(3-(trifluoromethyl)benzylidene)-2,3-dihydrobenzofuran-5-yl)acetamide] | > 100 µM | > 100 µM | > 100 µM | > 100 µM | > 100 µM | > 100 µM | 252.1 °C | – | – | – | – | – | –
6 | C[C@@H]1[C@H](O)[C@@H](C)/C=C/C=C/C=C/C=C/C=C/C=C/C=C/[C@H](O[C@@H]2O[C@H](C)[C@@H](O)[C@H](N)[C@@H]2O)C[C@@H]2O[C@](O)(C[C@@H](O)C[C@@H](O)[C@H](O)CC[C@@H](O)C[C@@H](O)CC(=O)O[C@H]1C)C[C@H](O)[C@H]2C(=O)O [Amphotericin B, reference compound] | – | – | – | – | – | 0.62 µM (≈ 0.573 µg/mL) | – | – | – | – | – | – | –
7 | CC(=O)Nc1ccc2c(c1)C(=O)/C(=C/c1cccc(O)c1)O2 [Compound 32, (Z)-N-(2-(3-hydroxybenzylidene)-3-oxo-2,3-dihydrobenzofuran-5-yl)acetamide] | – | – | – | – | – | – | – | >100 µM | >100 µM | >100 µM | >100 µM | >100 µM | >100 µM
8 | Nc1ccc2c(c1)C(=O)/C(=C/c1ccc(Oc3ccccc3)cc1)O2 [Compound 17, (Z)-5-amino-2-(4-phenoxybenzylidene)benzofuran-3(2H)-one] | > 100 µM | > 100 µM | > 100 µM | > 100 µM | > 100 µM | > 100 µM | 170.6 °C | – | – | – | – | – | –
9 | COc1ccc(/C=C2\Oc3ccc(N)cc3C2=O)cc1 [Compound 9, (Z)-5-amino-2-(4-methoxybenzylidene)benzofuran-3(2H)-one] | > 100 µM | > 100 µM | > 100 µM | > 100 µM | > 100 µM | > 100 µM | – | – | – | – | – | – | –
10 | Nc1ccc2c(c1)C(=O)/C(=C/c1ccccc1F)O2 [Compound 26, (Z)-5-amino-2-(2-fluorobenzylidene)benzofuran-3(2H)-one] | 50 µM (≈ 12.8 µg/mL) | > 100 µM | > 100 µM | > 100 µM | > 100 µM | > 100 µM | – | – | – | – | – | – | –
11 | Nc1ccc2c(c1)C(=O)/C(=C/c1ccc(F)cc1)O2 [Compound 28, (Z)-5-amino-2-(4-fluorobenzylidene)benzofuran-3(2H)-one] | > 100 µM | > 100 µM | > 100 µM | > 100 µM | > 100 µM | > 100 µM | 164.4 °C | – | – | – | – | – | –
12 | Nc1ccc2c(c1)C(=O)/C(=C/c1cccc(F)c1)O2 [Compound 27, (Z)-5-amino-2-(3-fluorobenzylidene)benzofuran-3(2H)-one] | > 100 µM | > 100 µM | > 100 µM | > 100 µM | > 100 µM | > 100 µM | – | – | – | – | – | – | –
13 | CO/N=C1\CN(c2nc3c(cc2F)c(=O)c(C(=O)O)cn3C2CC2)CC1CN (centres unmarked) [Gemifloxacin, reference compound] | 0.03 µM (≈ 0.0117 µg/mL) | 0.06 µM (≈ 0.0234 µg/mL) | 0.06 µM (≈ 0.0234 µg/mL) | 0.25 µM (≈ 0.0973 µg/mL) | 2 µM (≈ 0.779 µg/mL) | – | – | – | – | – | – | – | –
14 | COc1ccc(/C=C2\Oc3ccc(NC(C)=O)cc3C2=O)cc1 [Compound 6, (Z)-N-(2-(4-methoxybenzylidene)-3-oxo-2,3-dihydrobenzofuran-5-yl)acetamide] | > 100 µM | > 100 µM | > 100 µM | > 100 µM | > 100 µM | > 100 µM | 252 °C | – | – | – | – | – | –
15 | CC(=O)Nc1ccc2c(c1)C(=O)/C(=C/c1cccc(Oc3ccccc3)c1)O2 [Compound 14, (Z)-N-(3-oxo-2-(3-phenoxybenzylidene)-2,3-dihydrobenzofuran-5-yl)acetamide] | > 100 µM | > 100 µM | > 100 µM | > 100 µM | > 100 µM | > 100 µM | 196.4 °C | – | – | – | – | – | –
16 | COc1cccc(/C=C2\Oc3ccc(NC(C)=O)cc3C2=O)c1 [Compound 5, (Z)-N-(2-(3-methoxybenzylidene)-3-oxo-2,3-dihydrobenzofuran-5-yl)acetamide] | > 100 µM | 100 µM (≈ 30.9 µg/mL) | > 100 µM | > 100 µM | 100 µM (≈ 30.9 µg/mL) | > 100 µM | 204.2 °C | – | – | – | – | – | –
17 | Nc1ccc2c(c1)C(=O)/C(=C/c1ccc(OCc3ccccc3)cc1)O2 [Compound 13, (Z)-5-amino-2-(4-(benzyloxy)benzylidene)benzofuran-3(2H)-one] | 100 µM (≈ 34.3 µg/mL) | > 100 µM | > 100 µM | > 100 µM | > 100 µM | > 100 µM | 141.6 °C | – | – | – | – | – | –
18 | Nc1ccc2c(c1)C(=O)/C(=C/c1cccc(C(F)(F)F)c1)O2 [Compound 30, (Z)-5-amino-2-(3-(trifluoromethyl)benzylidene)benzofuran-3(2H)-one] | > 100 µM | > 100 µM | > 100 µM | > 100 µM | > 100 µM | > 100 µM | > 350 °C | – | – | – | – | – | –
19 | Nc1ccc2c(c1)C(=O)/C(=C/c1cccc(O)c1)O2 [Compound 33, (Z)-5-amino-2-(3-hydroxybenzylidene)benzofuran-3(2H)-one] | – | – | – | – | – | – | – | >100 µM | >100 µM | >100 µM | >100 µM | >100 µM | >100 µM
20 | COc1cccc(/C=C2\Oc3ccc(N)cc3C2=O)c1 [Compound 8, (Z)-5-amino-2-(3-methoxybenzylidene)benzofuran-3(2H)-one] | > 100 µM | > 100 µM | > 100 µM | > 100 µM | > 100 µM | > 100 µM | – | – | – | – | – | – | –
21 | CC(=O)Nc1ccc2c(c1)C(=O)/C(=C/c1ccc(C(=O)O)cc1)O2 [Compound 31, (Z)-4-((5-acetamido-3-oxobenzofuran-2(3H)-ylidene)methyl)benzoic acid] | 50 µM (≈ 16.2 µg/mL) | 100 µM (≈ 32.3 µg/mL) | > 100 µM | > 100 µM | 100 µM (≈ 32.3 µg/mL) | > 100 µM | – | – | – | – | – | – | –
